According to patent US20230003721A1, “MITOTHERAPEUTICS FOR THE TREATMENT OF BRAIN DISORDERS” (The University of Florida Research Foundation, Inc., priority 2019, published 2023):
Where a name gives a salt, the structure may show the parent alone. Read-outs that look alike come from different tables or passages of the source.

Legend:
[1] = test system: isolated forebrain mitochondria; assay: ATP production of isolated mitochondria (luciferase-based kinetic assay); assay type: biochemical, mouse; conditions: for ATP production kinetics, amplitude of single exponential fit: 12 μM, starting 20 min after addition, DMSO 22498±358; for ATP production of isolated mitochondria (direct effect): 12.5 μM, within the 45-min measurement period, vs DMSO
Method: Isolation of mitochondria. For the ATP synthesis experiments of FIG. 6, forebrains from P0 pups were dissected as described above. 2×10^7 cells were harvested for high-purity mitochondrial isolation using the Qiagen QProteome kit. The mitochondrial pellet was resuspended in 500 μl mitochondria storage buffer (provided by kit) and kept on ice until further use.
ATP production of isolated forebrain mitochondria of P0 pups was measured by ATP Determination Kit (Molecular Probes). […] The reactions were initiated by the addition of 1 mM ADP (deprived of ATP contamination by adding 3 U/ml hexokinase to 10 mM of ADP in 50 mM Tris-HCl, 20 mM MgCl2 and 22 mM glucose, incubating the solution at 37° C. for 1 hr and heat inactivating the hexokinase at 100° C. for 3 min). Luminescence was recorded every 15-30 sec for 1 hr at 580±40 nm.

[2] = test system: primary forebrain neurons; conditions: 48 h; for live:dead cell ratio in the presence of toxic concentrations of glutamate: 25 μM glutamate; for death among neurons compared to control: Aβ(1-42) 10 μM
[3] = test system: primary forebrain neurons; assay: cells; conditions: 24 h; for EC50: Mus musculus, Neuron; for Dendritic Mt CA / Neurite Area: rescreen, 12.5 μM, vs DMSO wells
primary neurons [4] = conditions: 12.5 μM compound, 48 h; for protection from peroxide (PO) induced mitochondrial fragmentation: 75 μM peroxide
primary neurons [5] = assay: TMRM fluorescence assay of inner mitochondrial membrane potential (ΔΨm); conditions: for TMRM Primary: primary screen, 12.5 μM; for TMRM Primary / TMRM Rescreen: 24 h; for Emax / EC50: Mus musculus, Primary neuron; for Emax: read-out: TMRM (Effect-size); for EC50: read-out: TMRM-EC50
primary neurons [6] = assay: CellTiter-Glo luminescence-based ATP assay; assay type: cell-based, mouse; conditions: for ATP: ATP orthogonal screen, 24 h; for ATP production in neurons: after 24 hr of treatment; for EC50 / Emax: Mus musculus, Primary neuron, dose response; for EC50: 15 concentrations from 6 nM to 100 uM; for Emax: maximal percent increase relative to in-plate DMSO controls, read-out: ATP (Effect-size)
In short: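 Primary neurons treated from DIV13 for 24 h with compound or DMSO. After part of the medium was removed, CellTiter-Glo reagent was added; plates were shaken 10 min at 200 rpm, kept 2 min in the dark at room temperature, and luminescence read as total ATP.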

Drosophila model for AD = assay: Drosophila model for AD: neuronal mitochondrial morphology; assay type: in vivo; conditions: cell bodies of neurons; 100 micromolar, 15 days-of-age
Source text: To assay representative compounds in this example, we employed a Drosophila model for AD (X. Wang et al., Mol. Neurobiol. […] Flies expressing this toxic protein show: […] Drugs that show efficacy therefore: enlarge neuronal mitochondria (increased volume, increased surface area, increased length), reduce sphericity, and reduce the number of mitochondria compared to untreated Alzheimer's flies. The AD model flies were collected immediately after eclosion from the pupal case and transferred to food that was laced with drug at 100 micromolar concentration. The flies were aged to 15 days-of-age: this is when the mitochondrial pathology is very robust. We compared the morphology of mitochondria collected from these flies treated with drug and compared them to the mitochondria of flies that remained untreated.

primary neurons [7] = assay: Mitochondrial morphology and neurite area after functional modulators; assay type: cell-based, mouse
Method: Mitochondrial morphology and neurite area measurements. Mitochondrial morphology and neurite area were quantified using methods described by Varkuti et al, 2020. Briefly, Cre-dependent mitochondrial targeted GFP2 (mito-GFP) ROSA26 knock-in mice were crossed with Ai14 (007908, The Jackson Laboratory) expressing cytosolic-tdTomato, and the forebrain of P0 pups were isolated and primary neurons were cultured as described above. AAV9 virus containing the iCRE sequence driven by the neuron specific CaMKII promoter was added to the cell culture at plating and 75% of the media replaced 4 h after plating. […] Z-projected images of the green channel were preprocessed (background subtraction: rolling ball, radius=3; median filtering: radius=1) and somatic mitochondria were removed (see details in Varkuti et al, Science Advances 6 (2020) eaaw8702). Red channel images were also preprocessed (tubeness filter, soma removal). Preprocessed images were segmented by GE Developer software (object-based, kernel size: 3). […] The length and circularity measurements for mitochondria were aggregated using the median and the area for neurites using the sum. After removing empty fields and outlier values from the fields, aggregated field values were averaged to well values (4 fields/well, 12 wells/compound). Robust Z-scores were calculated using DMSO-treated wells for each well ((mediancompound−medianDMSO)/median absolute deviationDMSO), well values were averaged for each compound.
A high-content assay was developed in parallel to monitor aspects of mitochondrial dynamics in primary cultured neurons that conditionally express (Cre recombinase dependent) mitochondrial-tagged GFP and cytosolic tdTomato reporters (Varkuti et al., 2020). We monitored two aspects of neuritic mitochondrial dynamics: (1) the health of mitochondria as measured by the average circularity of axonal mitochondria, since defective mitochondria targeted for mitophagy become circular in shape, and (2) the balance between fission/fusion measured by the average length of dendritic mitochondria. […] FIG. 19A illustrates the results of surveying a collection of functional modulators selected from 5 different structural clusters (FIG. 17), quantified as robust z-scores relative to DMSO-treated control neurons.

[8] = read-out: Health (Ax Mt Circularity) EC50
[9] = read-out: Sprouting (Neurite Area) EC50
[10] = read-out: Elongation (Dend Mt length) EC50
[11] = read-out: Mt Content (Dend Mt CA) EC50
[12] = peroxide 75 μM, glutamate 25 μM

Row | Compound | ATP production kinetics, amplitude of single exponential fit [1] | ATP production of isolated mitochondria (direct effect) [1] | EC50 [3, 8] | EC50 [3, 9] | Dendritic Mt CA [3] | Neurite Area [3] | protection from peroxide (PO) induced mitochondrial fragmentation (primary neurons [4]) | EC50 [3, 11] | TMRM Primary (primary neurons [5]) | TMRM Rescreen (primary neurons [5]) | ATP (primary neurons [6]) | Emax (primary neurons [5]) | EC50 (primary neurons [5]) | EC50 (primary neurons [6]) | Emax (primary neurons [6]) | Surface area of mitochondria, p (treated vs untreated) (Drosophila model for AD) | further results
1 | O=C(/C=C/c1ccccc1)c1ccc(O)cc1O [2′,4′-DIHYDROXYCHALCONE] | 9853±132 | decreased | 6700 nM | > 25000 nM | 3.39 robust Z-scores | 0.42 robust Z-scores | – | – | – | – | – | – | – | – | – | – | live:dead cell ratio in the presence of toxic concentrations of glutamate [2]: offered protection
2 | O=C(/C=C/c1ccccc1)c1ccc(O)cc1 [4′-HYDROXYCHALCONE] | 6121±99 | decreased | 5800 nM | 900 nM | 5.11 robust Z-scores | 2.21 robust Z-scores | fully protected | 4800 nM | – | – | – | – | – | – | – | – | live:dead cell ratio in the presence of toxic concentrations of glutamate [2]: offered protection; EC50 [3, 10]: 2300 nM
3 | CCN(CCCc1ccccc1)CCCc1ccccc1 [ALVERINE CITRATE] | 28383±278 | significantly increased | 300 nM | > 25000 nM | 5.09 robust Z-scores | −1.50 robust Z-scores | fully protected | 200 nM | 4.24 Z-scores | 4.15 Z-scores | 4.56 Z-scores | – | – | – | – | – | live:dead cell ratio in the presence of toxic concentrations of glutamate [2]: offered protection; ATP production in neurons (primary neurons [6]): increased; protection from glutamate (GLUT) induced mitochondrial fragmentation (primary neurons [4]; 25 μM glutamate): fully protected; EC50 [3, 10]: 2900 nM
4 | COc1ccccc1N1CCN(CC(O)COc2cccc3ccccc23)CC1 (stereo not shown) [NAFTOPIDIL] | 49917±838 | significantly increased | 200 nM | 500 nM | 4.86 robust Z-scores | 2.41 robust Z-scores | fully protected | 100 nM | 3.64 Z-scores | 9.07 Z-scores | 3.62 Z-scores | 18.8% | 2240 nM | 230 nM | 15% | – | –
5 | Cc1ccccc1C(OCCN(C)C)c1ccccc1 (stereo not shown) [ORPHENADRINE CITRATE] | – | – | – | – | 3.21 robust Z-scores | 0.08 robust Z-scores | fully protected | – | 3.26 Z-scores | 5.75 Z-scores | 6.08 Z-scores | 25.5% | – | – | 14.3% | p = 0.022 | –
6 | COc1cc(O)c2c(=O)c(O)c(-c3ccc(O)c(O)c3)oc2c1 [RHAMNETIN] | 10059±166 | decreased | 2700 nM | 300 nM | 4.48 robust Z-scores | 2.04 robust Z-scores | fully protected | 200 nM | – | – | – | – | – | – | – | p = 0.0564 | ATP production in neurons (primary neurons [6]): increase; EC50 [3, 10]: 200 nM
7 | COc1ccccc1OCCNCC(O)COc1cccc2[nH]c3ccccc3c12 (stereo not shown) [carvedilol] | – | – | – | – | – | – | – | – | 4.11 Z-scores | 5.71 Z-scores | 5.32 Z-scores | 20.2% | 350 nM | 230 nM | 15.9% | p = 0.078 | –
8 | N[C@@H](CCC(=O)O)C(=O)[O-].[Na+] [glutamate, monosodium glutamate] | – | – | – | – | – | – | – | – | – | – | – | – | – | – | – | – | death among neurons compared to control [2, 12]: 42%; live cell ratio (live cells/live+dead cells) ([2]; peroxide 75 μM, glutamate 25 μM, control 0.57): 0.26
9 | OC1(c2ccc(Cl)c(C(F)(F)F)c2)CCN(CCCC(c2ccc(F)cc2)c2ccc(F)cc2)CC1 [penfluridol] | – | – | – | – | – | – | – | – | 4.29 Z-scores | 4.83 Z-scores | 5.75 Z-scores | 25.2% | 50 nM | 30 nM | 22.4% | p = 0.066 | neuritic area (primary neurons [7]; after 48 h of treatment): increase; Mitochondrial Morphology (primary neurons [7]; significant change): elongated; Neurite Area (primary neurons [7]; significant change): increased
10 | O=c1[nH]c2ccccc2n1C1CCN(CCCC(c2ccc(F)cc2)c2ccc(F)cc2)CC1 [pimozide] | – | – | – | – | – | – | – | – | 2.65 Z-scores | 3.74 Z-scores | 6.60 Z-scores | 25.1% | 130 nM | 90 nM | 20.4% | p = 0.017 | –
11 | Aβ(1-42): toxic amyloid-β peptide fragment, oligomeric, HFIP-treated peptide (BACHEM) | – | – | – | – | – | – | – | – | – | – | – | – | – | – | – | – | death among neurons compared to control [2, 12]: no detectable death
